Data published in US20090280167A1, “ENHANCEMENT OF DRUG THERAPY BY MIRNA” (Abraxis BioScience, LLC, priority 2008, published 2009).
pEC50, pIC50: −log10 of the molar value.

What was measured:
Format in all cases: cell-based
[1] = tested on: colon cancer line HT29; experiment: Apo-ONE Homogeneous Caspase-3/7 assay of 17-AAG apoptotic activity; conditions: HT29 cells, 72 hours at 37° C., Caspase-3/7 activity
Excerpt: The Apo-ONE® Homogeneous Caspase-3/7 Assay (Promega, Madison, Wis.) uses a proprietary lysis/activity buffer, in conjunction with the (Z-DEVD)2-Rhodamine 110 substrate, enables a simple “add-mix-read” format for the detection of caspase-3 and -7 in adherent, suspension, and primary culture cells, or in purified caspase preparations. The assay uses a rhodamine 110-based substrate allows for exquisite sensitivity previously unobtainable with conventional colorimetric or fluorometric assays.
Specifically, 100 μl of Apo-ONE® Caspase-3/7 Reagent was added to each well of a white or black 96-well plate containing 100 μl of blank, control or cells in culture. The plate was covered with a plate sealer for incubating for extended periods (>4 hours). In order to perform this assay in a 384-well plate, a 1:1 volume ratio of Apo-ONE® Caspase-3/7 Reagent to sample was used. The contents of wells were mixed using a plate shaker at 300-500 rpm from 30 seconds and incubated at room temperature for 6 hours. The fluorescence of each well was determined at 485/538 nm (a measure of apoptosis, with the higher ratio indicating more apoptosis).
The apoptotic activity of 17-AAG (17-(Allylamino)-17-demethoxygeldanamycin) was determined in the colon cancer line HT29 using an assay for Caspase-3/7 activity (Apo-ONE kit, Promega). 17-AAG-treated HT29 cells were compared with DMSO-treated control (FIG. 1). […]

[2] = tested on: Her2; experiment: Confocal imaging of Her2 internalization and degradation; conditions: BT474 cells, concentration of IC50, 24 hours, confocal image
Experimental: 17-AAG treated BT474 cells were examined by the confocal images system. BT474 cells were seeded on the slide and treated at the concentration of IC50 for 24 hours. 17AAG-treated and control BT474 cells were fixed with Methanol, stained with Her2 antibody and analyzed by the confocal image.

[3] = tested on: Her2; experiment: Her2 suppression assay (anti-Her2 immunostaining, absorbance at 405 nm); conditions: BT474 cells, 24-hours treatment
Experimental: Ten thousand BT474 cells per well were seeded into a microtiter plate and grown for 48 hours. After this preincubation, the BT474 cells treated with various concentrations of 17-AAG and its analogs for 24-hours. At the end of this incubation the media was removed from each well, each well was washed twice with ice-cold Tris buffer saline (containing 0.1% Tween 20) and the cells were fixed with Methanol (ice-cold) at […] for 10 minutes. The fixed BT474 cells were immunostained with anti-Her2 antibody. The presence of Her2 protein was determined by measurement of the absorbance at 405 nm in the plate reader.

[4] = tested on: HT29 cells; experiment: Apoptotic activity of 17-AAG combined with anticancer agents (Apo-ONE kit); conditions: three days after drug treatment
Experimental: A panel of anticancer chemotherapeutical agents was tested for the enhancement of apoptotic activity with 17-AAG (using the same apoptotic assay system in Example 1), FIG. 4. HT29 cells were treated with various concentration of 17-AGG in the presence or absence of anticancer agents including known HSP70 promoter inducers. Three days after the drug treatment, the apoptotic activity was measured by the Apo-ONE kit (see above). When combined with the anticancer agents, including HSP70 inducers (such as Cisplatin, Etoposide, Doxorubicin, Velcade, Dimethylenastron). […] Some inhibition was also observed for other inducers of HSP70.

[5] = tested on: HT29 cells; experiment: miRNA concentration dependency of 17-AAG synergy; conditions: 17-AAG 3.125 ug/ml, miRNA 60, 30, 15, 7.5 nM
Experimental: To confirm the activity shown in Example 6, the experiment was repeated with constant amount of 17-AAG (3.125 ug/ml) and increasing amount of miRNAs (60, 30, 15, 7.5 nM) used for transfection. […] There were two distinct classes of miRNAs according to activity (one class with high activity: miR454 (SEQ ID NO:2), miR-520c (SEQ ID NO:4) and miR-520d (SEQ ID NO:5); one class with low activity: miR-145 (SEQ ID NO:1) and miR-519a (SEQ ID NO:3)).

[6] = tested on: HT29 colon cancer line; experiment: miRNA library screen for enhancement of 17-AAG apoptotic activity (Apo-ONE caspase); conditions: HT29, miRNA transfected 48 hours, then 17-AAG 48 hours, both 1:800 and 1:3200 dilutions of 17-AAG
Experimental: In order to observe an enhancement of activity in 17-AAG, a miRNA library of 470 Pre-miRNA precursors have been transfected (Ambion, siPORT NeoFx transfection agent) in to the HT29 colon cancer line and followed by 17-AAG treatment. Synthetic ds-miRNAs from the miRNA library were transfected into HT29 cells and incubated for 48 hours at 37° C. Various concentrations of 17-AAG were added to miRNA transfected HT29 cells and incubated for another 48 hours. 100 uL of media was aspirated from each well. Apo-One caspase reagent was prepared by diluting the substrate in buffer in a 1:100 concentration. 100 uL of the reagent was added to each well. Plates were incubated at room temperature for 6 hours. The apoptotic activity was measured by the Fluoroskan plate reader. […] Molecules that synergized at both 1:800 and 1:3200 dilutions of 17-AAG were miR-145, miR-454-3p, miR519a, miR-520c, and miR-520d (SEQ ID NOS:1-5), (FIG. 5, dark background, respectively).

[7] = tested on: HT29 cells; experiment: miRNA enhancement of oxaliplatin or paclitaxel apoptosis (Apo-ONE Caspase-3/7 Assay); conditions: HT29, miRNA 30 nM 48 hours; for Level of apoptosis in oxaliplatin treated cells expressing exogenous miRNA: then 15.6 μg/ml oxaliplatin 48 hours; for Level of apoptosis in paclitaxel treated cells expressing exogenous miRNA: then 7.8 μg/ml paclitaxel 48 hours
Experimental: A transfection medium was made up by diluting siPORT NeoFx (0.3 μl/well) in OPTI-MEM (16.7 ul/well) in the wells of a microtiter plate and this medium was incubated for 10 minutes at room temperature. A pre-miRNA library was diluted to 1 μM and […] of miRNA was added to each well (30 nM). This mixture was incubated at room temperature for another 10 minutes. HT29 cells were then added at 30,000 cells/well and the plates were incubated 48 hours 37° C.
For treatment with candidate therapeutic agents, the media was aspirated from each well and 200 μl/well of 15.6 μg/ml oxaliplatin, 7.8 μg/ml paclitaxel or negative control solution was added. The plates were incubated for 48 hours 37° C. The Apo-ONE® Homogeneous Caspase-3/7 Assay (Promega, Madison, Wis., USA) was performed on the treated cells. The reactions were performed in duplicate.

Row | Compound | Class of activity in synergy with 17-AAG [5] | Synergy with 17-AAG in apoptotic reading [6] | Level of apoptosis in paclitaxel treated cells expressing exogenous miRNA [7] | further results
1 | C=CCNC1=C2C[C@@H](C)C[C@H](OC)[C@H](O)[C@@H](C)/C=C(\C)[C@H](OC(N)=O)[C@@H](OC)/C=C\C=C(/C)C(=O)NC(=CC1=O)C2=O [17-AAG, 17-(Allylamino)-17-demethoxygeldanamycin] | – | – | – | EC50 of apoptosis induction [1]: 0.07 µg/mL; pEC50 ([1]; read-out: EC50 of apoptosis induction): 6.92; Her2 protein expression and localization after treatment [2]: eliminated from its cell surface sub-localization to cytoplasm; pIC50 [3]: ~7.49
2 | CC(C)C[C@H](NC(=O)[C@H](Cc1ccccc1)NC(=O)c1cnccn1)B(O)O [Velcade] | – | – | – | Effect of the added anticancer agent on apoptotic activity of 17-AAG [4]: strongly inhibited
3 | miR519a: miRNA AAAGUGCAUCCUUUUAGAGUGUUAC (SEQ ID NO:3) (listed as RNA, chemistry not given here; listed as Homo sapiens) | low activity | synergized | – | –
4 | miR-145: miRNA GUCCAGUUUUCCCAGGAAUCCCUU (SEQ ID NO:1) (listed as RNA, chemistry not given here; listed as Homo sapiens) | low activity | synergized | – | –
5 | miR-454-3p: miRNA UAGUGCAAUAUUGCUUAUAGGGUUU (SEQ ID NO:2) (listed as RNA, chemistry not given here; listed as Homo sapiens) | high activity | synergized | – | Level of apoptosis in oxaliplatin treated cells expressing exogenous miRNA [7]: highest level of apoptosis
6 | miR-520c: miRNA AAAGUGCUUCCUUUUAGAGGGUU (SEQ ID NO:4) (listed as RNA, chemistry not given here; listed as Homo sapiens) | high activity | synergized | – | Level of apoptosis in oxaliplatin treated cells expressing exogenous miRNA [7]: highest level of apoptosis
7 | miR-520d: miRNA AAAGUGCUUCUCUUUGGUGGGUU (SEQ ID NO:5) (listed as RNA, chemistry not given here; listed as Homo sapiens) | high activity | synergized | – | Level of apoptosis in oxaliplatin treated cells expressing exogenous miRNA [7]: highest level of apoptosis
8 | mir 425-3p: miRNA AUCGGGAAUGUCGUGUCCGCC (SEQ ID NO:6) (AUCGGGAAUGUCGUGUCCGCCC; listed as RNA, chemistry not given here; listed as Homo sapiens) | – | – | highest levels of apoptosis | –
9 | mir 495: miRNA AAACAAACAUGGUGCACUUCUUU (SEQ ID NO:7) (listed as RNA, chemistry not given here; listed as Homo sapiens) | – | – | highest levels of apoptosis | –
10 | mir 572: miRNA GUCCGCUCGGCGGUGGCCCA (SEQ ID NO:8) (listed as RNA, chemistry not given here; listed as Homo sapiens) | – | – | highest levels of apoptosis | –
11 | mir 661: miRNA UGCCUGGGUCUCUGGCCUGCGCGU (SEQ ID NO:9) (listed as RNA, chemistry not given here; listed as Homo sapiens) | – | – | highest levels of apoptosis | –
